Measured values reported in publication PMC7411736, “Effects of Sesamin, the Major Furofuran Lignan of Sesame Oil, on the Amplitude and Gating of Voltage-Gated Na^+ and K^+ Currents” (Molecules, 2020).

Assays:
Format in all cases: cell-based, rat
[1] = system: M-type K+ currents (IK(M)) in GH3 cells; assay: Whole-cell patch-clamp of M-type K+ current (depolarization from −50 to −10 mV, 1 sec); details: amplitude at end of pulse, read-out: IC50 for decrease of IK
Text: The following experiments were further undertaken to determine whether the addition of SSM could exert any perturbations on the amplitude or gating of IK(M) in these cells. Cells were bathed in high-K^+, Ca^2+-free solution, and the recording pipette was then filled with K^+-enriched solution. Figure 5 illustrates that the presence of SSM can result in a concentration-dependent depression in the amplitude of IK(M) during step depolarization.
The bath solution (i.e., a HEPES-buffered normal Tyrode’s solution) utilized in the present study was composed of 136 mM NaCl, 5.4 mM KCl, 1.8 mM CaCl2, 0.53 mM MgCl2, 5.5 mM glucose, and 5.5 mM HEPES titrated with NaOH to pH 7.4. […]
On the day of each experiment, cells were dispersed with a 1% trypsin/EDTA solution and a few drops of cell suspension were rapidly placed in a custom-built recording chamber mounted on the stage of an inverted DM-IL microscope (Leica; Major Instruments, Kaohsiung, Taiwan). […] We measured ion currents in the whole-cell model of a standard patch-clamp technique with dynamic adaptive suctioning (i.e., decremental change of suction pressure in response to a progressive increase in the electrode resistance), with the aid of an RK-400 (Bio-Logic, Claix, France) or an Axopatch-200B (Molecular Devices, Sunnyvale, CA) patch amplifier. […]

[2] = system: delayed rectifier K+ currents (IK(DR)) in GH3 cells; assay: Whole-cell patch-clamp of delayed rectifier K+ current (1-sec step depolarization)
Experimental: We next examined whether the presence of SSM is able to modify IK(DR) present in GH3 cells. To achieve this goal, we bathed cells in Ca^2+-free Tyrode’s solution which contained 1 μM TTX, and then filled up the recording electrode by using K^+-containing solution. When cells were exposed to SSM at a concentration of 3 μM, the amplitude of IK(DR) in response to a 1-sec step depolarization was unchanged. It is noted, however, that the IK(DR) amplitudes responding to different levels of depolarizing command steps were decreased by the addition of 10 μM SSM, though the activation time course of IK(DR) evoked by membrane depolarization remained unchanged.
(§1) The bath solution (i.e., a HEPES-buffered normal Tyrode’s solution) utilized in the present study was composed of 136 mM NaCl, 5.4 mM KCl, 1.8 mM CaCl2, 0.53 mM MgCl2, 5.5 mM glucose, and 5.5 mM HEPES titrated with NaOH to pH 7.4. To measure macroscopic IK(DR) and Ih, we filled patch pipettes by using a solution containing 130 mM K-aspartate, 20 mM KCl, 1 mM KH2PO4, 1 mM MgCl2, 3 mM Na2ATP, 0.1 mM Na2GTP, 0.1 mM EGTA, and 5 mM HEPES adjusted with KOH to pH 7.2. To record INa and INa(R), we substituted K^+ ions in the pipette solution inside the electrode for equmolar Cs^+ ions and the pH value in the solution was adjusted to 7.2 with CsOH. […]
(§2) On the day of each experiment, cells were dispersed with a 1% trypsin/EDTA solution and a few drops of cell suspension were rapidly placed in a custom-built recording chamber mounted on the stage of an inverted DM-IL microscope (Leica; Major Instruments, Kaohsiung, Taiwan). […] We measured ion currents in the whole-cell model of a standard patch-clamp technique with dynamic adaptive suctioning (i.e., decremental change of suction pressure in response to a progressive increase in the electrode resistance), with the aid of an RK-400 (Bio-Logic, Claix, France) or an Axopatch-200B (Molecular Devices, Sunnyvale, CA) patch amplifier. […] During the measurements, the recorded area on the vibration-free table was shielded by using a Faraday cage (Scitech, Seoul, South Korea). […]

[3] = system: hyperpolarization-activated cation currents (Ih) in GH3 cells; assay: Whole-cell patch-clamp of hyperpolarization-activated cation current (−40 to −110 mV); details: 10 μM; at −110 mV; control 388 ± 24 pA; n = 9
Experimental: In the following experiments, we further studied whether the presence of SSM could perturb another type of inwardly directed current, i.e., Ih. Cells were exposed to Ca^2+-free Tyrode’s solution containing 1 μM TTX and the pipette was filled with K^+-containing solution. As the hyperpolarizing command pulse from −40 to −110 mV with a duration of 2 sec was delivered, Ih with a slowly activating property was robustly evoked, as observed previously. […] Cilobradine has recently been reported to decrease Ih amplitude, as well as to alter activation kinetics present in different types of excitable cells.
as §1, §2

c1cc2c(cc1[C@H]1OC[C@H]3[C@@H]1CO[C@@H]3c1ccc3c(c1)OCO3)OCO2 [SSM, [1S-(1α,3aα,4α,6aα)] -5,5’- (tetrahydro-1H,3H-furo [3–4-c]furan-1,4-diyl)bis-1,3-benzodioxole]
IC50 [1]: 4.8 µM | Effect on amplitude of IK(DR) ([2]; 3 μM, 1-sec step depolarization): unchanged | IK(DR) amplitude ([2]; 10 μM, at +40 mV, control 598 ± 34 pA, n = 8): 454 ± 29 pA | Decrease of IK(DR) amplitude ([2]; 10 μM, at +40 mV, n = 8): 23 ± 4% | Ih amplitude at end of hyperpolarizing step [3]: 386 ± 26 pA
